In US12103916B2, “Antifungal compounds” (University of Kentucky Research Foundation, priority 2016, dated 2024):
Like-named read-outs stand apart in the source and are kept apart here. Marks after values point to notes of the source that are not given here.

Tests used:
[1] = tested on: Aspergillus nidulans ATCC 38163; conditions: Table 1; strain L; control azoles; previously reported (refs 5, 16); cited from earlier work
[2] = tested on: Candida parapsilosis ATCC 22019; conditions: Table 1; strain J; control azoles; previously reported (refs 5, 16); cited from earlier work
[3] = tested on: Aspergillus terreus ATCC MYA-3633; test: MIC determination, strain M; assay type: cell-based; conditions: Aspergillus terreus, Table 2, all compounds and controls
From the text: (§1) For all of our azole derivatives we report their MIC-0 values against C. albicans ATCC 10231 (strain A) and all Aspergillus strains (K-M), which correspond to complete growth inhibition of these fungi. […] The MIC values presented for these five control drugs were either tested herein or correspond to our previously published data^5, 16 as indicated in Table 1.
(§2) Antifungal activity in the absence or presence of serum.
(§3) It is important to note that all comparisons to follow will be done by using the MIC values reported in μg/mL as the data were collected that way. However, we also present in parentheses in Table 2 the corresponding values in micromolar.
(§4) In this manuscript, we performed all activity comparisons by using the MIC values reported in μg/mL (Note: the corresponding MIC values are also provided in μM into parentheses in Tables 1, 2, S1, and S2).

[4] = tested on: C. albicans ATCC MYA-2876(S); conditions: Table 1; strain C; control azoles; previously reported (refs 5, 16); cited from earlier work
Candida krusei ATCC 6258 = test: MIC determination, strain I; assay type: cell-based; conditions: Pichia kudriavzevii, ATCC6258
Method: (§5) The antifungal activity of our new azole compounds 1-9 and 24-41 was first evaluated against a panel of seven Candida albicans strains (A-G), three non-albicans Candida strains […], and three Aspergillus strains (K-M) in a concentration range of 0.03-31.2 μg/mL (Table 1). […] For all of our azole derivatives we report their MIC-0 values against C. albicans ATCC 10231 (strain A) and all Aspergillus strains (K-M), which correspond to complete growth inhibition of these fungi. […] The commercially available antifungals AmB, FLC, ITC, POS, and VOR were used as reference drugs for comparison. The MIC values presented for these five control drugs were either tested herein or correspond to our previously published data^5, 16 as indicated in Table 1.
(§6) Antifungal activity in the absence or presence of serum. The antifungal activity of the newly prepared alkylated piperazine/morpholine-azole hybrids 16-28, of intermediate 14 that we used to verify that only final compounds exert antifungal activity, as well as that of alkylated piperazine/morpholine derivatives 1-10 were first evaluated against a panel of seven C. albicans (ATCC 10231 (A), ATCC 64124(R) (B), ATCC MYA-2876(S) (C), ATCC 90819(R) (D), ATCC MYA-2310(S) (E), ATCC MYA-1237(R) (F), and ATCC MYA-1003(R) (G)), three non-albicans Candida (C. glabrata ATCC 2001 (H), C. krusei ATCC 6258 (I), and C. parapsilosis ATCC 22019 (J)), and three Aspergillus (A. flavus ATCC MYA-3631 (K), A. nidulans ATCC 38163 (L), and A. terreus ATCC MYA-3633 (M)) strains using a concentration range of 0.03-31.3 μg/mL (Table 2).
as §3, with “Commercially available antifungal agents such as AmB, CAS, FLC, and VOR were used as positive controls for comparison. […] It” for “It”
(§7) We used the commercially available antifungal agents such as AmB, caspofungin (CAS), FLC, and VOR as positive controls for comparison. For derivatives 5-16 as well as the reference drugs AmB and CAS, we reported MIC-0 values, which correspond to no visible growth. […] In this manuscript, we performed all activity comparisons by using the MIC values reported in μg/mL (Note: the corresponding MIC values are also provided in μM into parentheses in Tables 1, 2, S1, and S2).

[5] = tested on: C. albicans ATCC 90819(R); test: MIC determination, strain D; assay type: cell-based, Candida albicans; conditions: Candida albicans, ATCC90819
Method: as §5, §6
as §3, with “Commercially available antifungal agents such as AmB, CAS, FLC, and VOR were used as positive controls for comparison. […] It” for “It”
as §7

[6] = tested on: Aspergillus nidulans ATCC 38163; test: MIC determination, strain L; assay type: cell-based
From the text: as §1, §2, §3, §4

[7] = tested on: Aspergillus terreus ATCC MYA-3633; conditions: Table 1; strain M; control azoles; previously reported (refs 5, 16); cited from earlier work
[8] = tested on: C. albicans ATCC 64124 (strain B) biofilms; test: Antibiofilm activity by XTT reduction assay; assay type: cell-based, Candida albicans; conditions: Table 4, Ex.2
Method: Antibiofilm activity of synthetic compounds. Biofilms are complex functional communities of one or more species of microorganisms that are encased in extracellular polymeric substances and attached to both a solid surface and to each other. Being complex matrices, antifungal agents have difficulty reaching the pathogens embedded in these difficult-to-treat networks. The antibiofilm activity of compounds 7, 9, 20, 22, 25, and 26, as well as that of VOR were evaluated against biofilms of C. albicans ATCC 64124 (strain B) by XTT reduction assay (Table 4).

[9] = read-out: MIC (MIC-2), in parentheses

C[C@@H](c1ncncc1F)[C@](O)(Cn1cncn1)c1ccc(F)cc1F [VOR, voriconazole]
MIC (MIC-2) [1]: 0.03^c μg/mL
MIC (MIC-2) [2]: <0.03^c μg/mL
MIC ([3]; read-out: MIC (MIC-0)): 0.12 µg/mL
MIC ([3]; read-out: MIC (MIC-0), in parentheses): 0.34 µM
MIC (MIC-2) [4]: 1.95^c μg/mL
MIC (Candida krusei ATCC 6258; read-out: MIC (MIC-2)): 0.12 µg/mL
MIC (Candida krusei ATCC 6258; [9]): 0.34 µM
MIC ([5]; read-out: MIC (MIC-2)): 1.95 µg/mL
MIC [5, 9]: 5.6 µM
MIC ([6]; ATCC38163, Table 2, strain L, all compounds and controls, read-out: MIC (MIC-0)): 0.12 µg/mL
MIC ([6]; ATCC38163, Table 2, strain L, all compounds and controls, read-out: MIC (MIC-0), in parentheses): 0.34 µM
MIC ([6]; ATCC38163, Table 3, Ex.2 compounds, no FBS, read-out: MIC, Aspergillus nidulans ATCC 38163 (L) (no FBS)): 0.12 µg/mL
MIC ([6]; ATCC38163, read-out: MIC, Aspergillus nidulans ATCC 38163 (L) (+10% FBS), Table 3, Ex.2 compounds, +10% FBS): 0.12 µg/mL
MIC (MIC-2) [7]: 0.12^c μg/mL
SMIC50 ([8]; reduces metabolic activity of biofilms by 50%): 62.5 µg/mL
SMIC80 ([8]; reduces metabolic activity of biofilms by 80%): 62.5 µg/mL
